Assay results taken from paper PMC12153776, “Synthesis and Preliminary Cytotoxicity Evaluation of 3-Lup-20(29)-Ene-3β,28-Diol Glycoconjugates Containing a Succinic Linker and a 1,2,3-Triazole Ring” (Cancers, 2025).

Experiments:
[1] = system: MCF-7 cell line; parameters: method as in PMID 33353244; conditions: previous study; cited from earlier work
[2] = system: healthy cells; parameters: method as in PMID 33353244; conditions: previous study; cited from earlier work
[3] = system: HCT 116 (colorectal carcinoma cell line); assay: cells; format: cell-based, human; conditions: Homo sapiens, MTT
Method: (§1) For biological studies three different cell lines were used: the NHDF-Neo cell line (Lonza, Poland), the HCT-116 cell line (American Type Culture Collection, ATCC, Manassas, VA, USA), and the MCF-7 cell line (purchased by the Maria Sklodowska-Curie Memorial Cancer Center and Institute of Oncology, Gliwice, Poland and gifted for our research). Cells were cultured in 96-well plates (Sarstedt, Nümbrecht, Germany) using RPMI 1640 or DMEM/F12 media (100 µL per well) supplemented with fetal bovine serum (FBS, EURx, Gdańsk, Poland), and with Antibiotic–Antimycotic Solution (Avantor, Gliwice, Poland). […] Stock solutions of the tested compounds were prepared in DMSO and stored under appropriate conditions. Immediately prior to the experiment, these solutions were diluted to the desired concentrations using a growth medium. In no dilution was the DMSO content higher than 1% v/v. The resulting solutions were then used to treat cells (100 µL per well). […] In parallel, the influence of copper ions on cellular proliferation was investigated. In this case, the procedure was analogous to the previously described one, with the difference that glycoconjugates were added in the culture medium with the addition of CuCl2. […] ACROS Organics) was applied following the manufacturer’s protocol. Absorbance of the formazan, formed during the test and dissolved in 100 µL of DMSO, was measured spectrophotometrically at 570 nm using a plate reader (Epoch, Bio-Tek, Winooski, VT, USA). The measured absorbance was analyzed to assess proliferation, where tested samples were compared with the untreated controls (100%). The results from MTT were presented as the mean of three experiments (biological replicates). For each experimental condition within a replicate, four technical repetitions were performed. Technical repetitions were averaged to obtain a single value per replicate. Statistical analyses were conducted using means of the biological replicates. The percentage of viable cells and the standard deviation (SD) were calculated in Excel (Microsoft Office 365, A3 for faculty), using the STDEV.S formula, which determines the standard deviation for a sample set. […] The results are expressed as the average value ± standard deviation (SD). To evaluate statistical significance, two-way analysis of variance (ANOVA) with replication was performed to assess the effects of compound type and concentration on cell proliferation. […] All statistical tests were performed in Excel. […] Two cancer cell lines were chosen for the study: HCT 116 (colorectal carcinoma cell line) and MCF-7 (human breast adenocarcinoma cell line). This selection was not random, as in both types of cancer cell lines overexpression of glucose and galactose transporters is observed. To determine if glycoconjugation enhanced the selectivity of the betulin derivatives, cytotoxicity tests on Normal Human Dermal Fibroblast-Neonatal cells (NHDF-Neo) were also conducted. […] The incubation time for individual cell lines varied from 24 to 72 h, due to differences in the doubling time of these cell lines.

[4] = system: MCF-7 (human breast adenocarcinoma cell line); assay: MTT cytotoxicity assay, MCF-7 cells; format: cell-based; conditions: for IC50: Homo sapiens, MCF7, 72 h, MTT, incubation 72 h
Method: as §1, with “Poland). Cells were seeded and incubated for 24 h prior to treatment:” for “Poland).”, “proliferation. When significant main effects were observed (p < 0.05), pairwise comparisons between betulin (BN) and each analogue at corresponding concentrations were conducted using two-tailed unpaired t-tests.” for “proliferation.”, “conducted. The selection of this healthy cell line, so atypical in relation to the cancer cells tested, was based on the desire to compare the selectivity index determined for the currently obtained glycoconjugates with the results obtained for the betulin derivatives we described earlier and draw preliminary conclusions on structure-selectivity relationships.” for “conducted.”

[5] = system: Normal Human Dermal Fibroblast-Neonatal cells (NHDF-Neo); assay: MTT cytotoxicity assay, healthy NHDF-Neo cells; format: cell-based; conditions: 24 h, incubation 24 h
Method: as §1

[6] = HCT-116, 24 h, incubation 24 h, no copper added
[7] = HCT-116, 48 h, incubation 48 h, addition of CuCl2 at 20 µM
[8] = HCT-116, 48 h, incubation 48 h, no copper added

Structure (SMILES) | in vitro activity against the MCF-7 cell line [1] | toxicity against healthy cells [2] | IC50 [3, 6] [µM] | IC50 [3, 7] [µM] | IC50 [3, 8] [µM] | IC50 ([4]; addition of CuCl2 at 20 µM) [µM] | IC50 ([4]; no copper added) [µM] | SI MCF-7 (ratio of IC50 of NHDF-Neo to IC50 of cancer cells) ([4]; addition of CuCl2 at 20 µM) | SI MCF-7 (ratio of IC50 of NHDF-Neo to IC50 of cancer cells) ([4]; no copper added) | IC50 ([5]; addition of CuCl2 at 20 µM) [µM] | IC50 ([5]; no copper added) [µM] | IC50 ([3]; HCT-116, 24 h, incubation 24 h, addition of CuCl2 at 20 µM) [µM]
C=C(C)C1CCC2(COC(=O)Cn3cc(CO)nn3)CCC3(C)C(CCC4C5(C)CCC(OC(=O)Cn6cc(CO)nn6)C(C)(C)C5CCC43C)C12 (stereo not shown) [3,28-O,O’-bis(2-(4-(hydroxymethyl-1H-1,2,3-triazol-1-yl)acetyl)betulin] | unexpectedly high in vitro activity | showed toxicity against healthy cells |  |  |  |  |  |  |  |  |  | 
C=C(C)[C@@H]1CC[C@]2(COC(=O)CCC(=O)OCc3cn([C@@H]4O[C@H](COC(C)=O)[C@@H](OC(C)=O)[C@H](OC(C)=O)[C@H]4OC(C)=O)nn3)CC[C@]3(C)C(CCC4[C@@]5(C)CC[C@H](O)C(C)(C)C5CC[C@]43C)C12 (stereo partly shown) [5c] |  |  | > 200 | > 200 | > 200 | 70.7 ± 5.44 | 128 ± 1.35 | >2.8 | >1.6 | > 200 | > 200 | 
C=C(C)[C@@H]1CC[C@]2(COC(=O)CCC(=O)OCc3cn(CCO)nn3)CC[C@]3(C)C(CCC4[C@@]5(C)CC[C@H](OC(C)=O)C(C)(C)C5CC[C@]43C)C12 (stereo partly shown) [9a] |  |  | > 200 | > 200 | > 200 | 139 ± 6.21 | 148 ± 8.71 |  | >1.4 | > 200 | > 200 | > 200
C=C(C)[C@@H]1CC[C@]2(COC(=O)CCC(=O)OCc3cn([C@@H]4O[C@H](COCc5ccccc5)[C@@H](OCc5ccccc5)[C@H](OCc5ccccc5)[C@H]4OCc4ccccc4)nn3)CC[C@]3(C)C(CCC4[C@@]5(C)CC[C@H](OC(C)=O)C(C)(C)C5CC[C@]43C)C12 (stereo partly shown) [5b] |  |  | > 200 |  | > 200 |  | 168 ± 11.7 |  | >1.2 |  | > 200 | 
